# Measurements published in patent publication US10125358B2, “Methods and compounds for increasing threonyl-tRNA synthetase activity” (UNIVERSITY OF VERMONT AND STATE AGRICULTURAL COLLEGE, priority 2012, dated 2018).
# Residue numbers refer to the chain shown, from its start. Names may count otherwise. “Also recorded” adds a separate entry of the source.
# T1: TARS (Homo sapiens, UniProt P26639)
# T1 sequence (P26639 1-723): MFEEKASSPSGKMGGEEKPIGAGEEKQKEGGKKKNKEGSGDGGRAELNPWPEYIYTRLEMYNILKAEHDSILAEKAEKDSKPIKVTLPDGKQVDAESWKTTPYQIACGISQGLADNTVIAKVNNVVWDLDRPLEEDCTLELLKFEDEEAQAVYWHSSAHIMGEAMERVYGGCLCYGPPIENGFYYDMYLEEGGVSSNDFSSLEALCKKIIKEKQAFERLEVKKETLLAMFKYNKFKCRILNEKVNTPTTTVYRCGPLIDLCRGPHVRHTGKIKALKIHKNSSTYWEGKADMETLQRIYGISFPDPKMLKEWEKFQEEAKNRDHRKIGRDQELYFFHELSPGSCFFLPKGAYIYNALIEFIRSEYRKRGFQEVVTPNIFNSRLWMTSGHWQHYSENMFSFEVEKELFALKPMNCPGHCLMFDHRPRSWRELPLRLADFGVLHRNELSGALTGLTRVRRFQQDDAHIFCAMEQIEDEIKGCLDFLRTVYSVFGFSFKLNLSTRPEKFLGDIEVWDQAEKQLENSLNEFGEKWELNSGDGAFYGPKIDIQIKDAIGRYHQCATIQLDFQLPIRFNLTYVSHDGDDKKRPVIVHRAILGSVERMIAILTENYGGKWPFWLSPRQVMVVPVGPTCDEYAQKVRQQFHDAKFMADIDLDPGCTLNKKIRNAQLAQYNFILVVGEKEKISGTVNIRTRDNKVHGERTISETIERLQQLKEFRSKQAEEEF
# B1: L567V TARS: BC194-resistant (borrelidin-resistant) L567V mutant of human TARS (protein, listed as Homo sapiens)
# chain: T1 sequence (P26639 1-723) with L567V
# B2: R442A TARS: aminoacylation-deficient human TARS mutant; essential catalytic arginine 442 exchanged for alanine (protein, listed as Homo sapiens)
# chain: T1 sequence (P26639 1-723) with R442A
# B3: E. coli ThrRS: bacterial (E. coli) threonyl-tRNA synthetase (protein, UniProt P0A8M3 1-642, looked up)
# Threonine--tRNA ligase: MPVITLPDGSQRHYDHAVSPMDVALDIGPGLAKACIAGRVNGELVDACDLIENDAQLSIITAKDEEGLEIIRHSCAHLLGHAIKQLWPHTKMAIGPVIDNGFYYDVDLDRTLTQEDVEALEKRMHELAEKNYDVIKKKVSWHEARETFANRGESYKVSILDENIAHDDKPGLYFHEEYVDMCRGPHVPNMRFCHHFKLMKTAGAYWRGDSNNKMLQRIYGTAWADKKALNAYLQRLEEAAKRDHRKIGKQLDLYHMQEEAPGMVFWHNDGWTIFRELEVFVRSKLKEYQYQEVKGPFMMDRVLWEKTGHWDNYKDAMFTTSSENREYCIKPMNCPGHVQIFNQGLKSYRDLPLRMAEFGSCHRNEPSGSLHGLMRVRGFTQDDAHIFCTEEQIRDEVNGCIRLVYDMYSTFGFEKIVVKLSTRPEKRIGSDEMWDRAEADLAVALEENNIPFEYQLGEGAFYGPKIEFTLYDCLDRAWQCGTVQLDFSLPSRLSASYVGEDNERKVPVMIHRAILGSMERFIGILTEEFAGFFPTWLAPVQVVIMNITDSQSEYVNELTQKLSNAGIRVKADLRNEKIGFKIREHTLRRVPYMLVCGDKEVESGKVAVRTRRGKDLGSMDVNEVIEKLQQEIRSRSLKQLEE
# Key:
# TARS [1] = molecular target: T1, TARS; assay: GTPase (GTP hydrolysis) assay; assay type: biochemical; parameters: His6 (N); made in house; host or cells: E. coli Rosetta 2 (DE3)pLysS, plasmid pET28a hctThrRS
# TARS [2] = molecular target: T1, TARS; assay: Ap4A formation assay (TLC, [α-32P]-ATP); assay type: biochemical; parameters: His6 (N); made in house; host or cells: E. coli Rosetta 2 (DE3)pLysS, plasmid pET28a hctThrRS; conditions: for Ap4A production rate: 5 μM enzyme, 2 mM threonine, 2 mM ATP
# SKOV-3 cells = assay: HIF-1α stabilization in hypoxia (Western blot); assay type: cell-based; conditions: for HIF-1α protein stabilization: hypoxia (2% O2), 6 h
# Protocol: After treatments, cells were harvested into sample buffer containing: 0.2 M Tris-HCL, 4% SDS, 4% β-mercaptoethanol, 40% glycerol, 4 μM pyronin Y. Extracts were sheared through a 24-gauge syringe. Samples were separated by 10% SDS-PAGE and transferred to nitrocellulose membrane and probed with rabbit polyclonal anti-TARS (1:500; Santa Cruz Biotechnology, Dallas, Tex.) or monoclonal anti-HIF-1α (BD Transduction Laboratories, [BD Biosciences, San Jose, Calif.]) (Lounsbury, Beddow et al. 1994). Secondary antibodies were HRP-goat-anti-mouse and HRP-goat-anti-rabbit (1:5,000; Jackson Laboratories, Bar Harbor, Me.).
# TARS [3] = molecular target: T1, TARS; assay: Ap4G formation assay (TLC, [α-32P]-GTP); assay type: biochemical; parameters: His6 (N); made in house; host or cells: E. coli Rosetta 2 (DE3)pLysS, plasmid pET28a hctThrRS; conditions: for Ap4G formation rate: 2 mM ATP, 2 mM threonine, 2 mM GTP
# TARS [4] = molecular target: T1, TARS; assay: Ki of borrelidin compounds for TARS; assay type: biochemical; conditions: calculated; data not shown
# HUVECs = assay: Quantitative RT-PCR of TARS mRNA; assay type: cell-based, human; conditions: HUVECs exposed to 50 ng/ml
# Protocol: Total RNA was extracted from cells using the RNeasy column protocol and cDNA was generated using an Omniscript reverse transcriptase assay according to the manufacturer's instructions (Qiagen, Frederick, Md.). Primers and probes for TARS and β2-microglobulin were Assays-on-Demand (Applied Biosystems, [Life Technologies, Carlsbad, Calif.]). RT-qPCR was performed using an ABI prism 7700 Sequence Detection System (Applied Biosystems). The relative quantity of mRNA level was determined using the comparative CT (ΔΔCT) method using β2-microglobulin to normalize mRNA level (Cassavaugh, Hale et al. 2011).
# tRNAThr = assay: Steady state aminoacylation assay; assay type: biochemical, E. coli or human; conditions: purified recombinant protein
# Protocol: Steady State Aminoacylation Assay—
# The aminoacylation activities of the TARS constructs were determined using modifications to established procedures (Francklyn et al 2008). Briefly, reaction mixtures consisted of 20 mM Tris-HCl pH 8.0, 100 mM KCl, 10 mM MgCl2, 1 mM dithiothreitol, 2 mM ATP, 2.5 U pyrophosphatase (Roche), 80 μM threonine, 20 μM [14C]-threonine, and 5 μM of E. coli or human tRNAThr. Reactions were initiated with the addition of 0.25-0.75 μM TARS and run at 37° C. Aliquots were taken at varying time points and spotted onto Whatmann 3MM paper filters pre-soaked in 5% trichloroacetic acid (TCA). Upon completion, the filters were washed 3 times in excess TCA, once in 95% ethanol, and dried under a heating lamp. The formation of Thr-tRNAThr was detected by scintillation counter and the activity determined by linear regression of threonyl-tRNAThr formed per active site per unit time.
# [5] = tested on: chorioallantoic membrane (CAM) of chicken embryos; assay: Chick chorioallantoic membrane (CAM) assay; assay type: in vivo; conditions: for CAM vessel formation / vascularity, effect of applied synthetase: purified protein applied daily to gelfoam sponge, 72 h
# Protocol: Chick Chorioallantoic Membrane Assay—
# Fertilized chicken eggs (Sunrise Farms, Catskill, N.Y.) day 1-2 post-laying were incubated in a humidified incubator at 37° C. for 72 h. Cleaned eggs were cracked and plated in a sterile 10 cm^2 tissue culture-treated dish and incubated at 37° C. for another 7 days. On developmental day 10, 1 mm^3 sterile gelatin sponge pieces (Surgifoam®; Johnson & Johnson Wound Management, Somerville, N.J.) were placed within the outer one-third of the membrane between large vessels. […] All compounds were applied in 10 μl to the CAM every 24 h for 72 h. Images were taken using a Leica MZ6 stereomicroscope every 24 h. Compounds were scored according to a modified version of Intensity Scoring as previously described (Ribatti, Nico et al. 2006). Briefly, each experimental condition was given a blinded score from 0-5 based on the change in the extent of vessel convergence and formation in proximity to the sponge from day 0 to day 3. Total score is averaged individual experimental condition scores from at least 15 replicates.
# Fertilized chicken embryos were cultured ex-ova and, starting at developmental day 10, agents were applied daily to gelfoam sponges on the CAM. Images were recorded daily over 72 h and scored blindly according to a modified version Intensity Scoring as previously described (Ribatti, Nico et al. 2006). Additional details regarding methods are provided in the Methods and Materials section of Example 1.
# [6] = substrate added to GTPase reaction
molecule,measurement,setting,value
Nc1ncnc2c1ncn2[C@@H]1O[C@H](COP(=O)(O)OP(=O)(O)OP(=O)(O)O)[C@@H](O)[C@H]1O [ATP],decrease in TARS GTPase activity,TARS [1]; [6],77%
C[C@@H]1C[C@H](C)C[C@H](C)[C@@H](O)CC(=O)O[C@H]([C@@H]2CCC[C@H]2C(=O)O)C/C=C/C=C(/C#N)[C@H](O)[C@@H](C)C1 [borrelidin],change of TARS GTPase activity upon treatment with inhibitor,TARS [1]; 10 μM compound,no observable change
same,"Ap4A synthesis, inhibition (qualitative)","TARS [2]; human TARS, 10 μM compound",at least partially inhibited
same,decrease in Ap4A formation activity,"TARS [2]; wildtype TARS, 10 μM compound",59.4%
same,HIF-1α transcription,SKOV-3 cells; SK-OV3 cells responding to hypoxia,no change in HIF-1α transcription
same,HIF-1α protein stabilization,SKOV-3 cells,reduce HIF-1α stabilization
same,HIF-1α protein stabilization,SKOV-3 cells; listed as BC144,diminished the levels of HIF-1α protein stabilization
same,"Ap4G synthesis, inhibition (qualitative)","TARS [3]; human TARS, 10 μM compound",at least partially inhibited
same,Ki,TARS [4],4.6 nM
C[C@@H](O)[C@H](N)C(=O)O [threonine],increase in TARS GTPase activity,TARS [1]; [6],26%
TNF-α,TARS mRNA level,HUVECs,neither VEGF nor TNF-α induced an increase; also recorded: do not induce TARS transcription
VEGF,TARS mRNA level,HUVECs,neither VEGF nor TNF-α induced an increase; also recorded: do not induce TARS transcription
B1,aminoacylation activity,tRNAThr,not compromised
same,sensitivity of synthetase-induced CAM angiogenesis to BC194,[5]; protein plus BC194 applied to CAM,not inhibited
same,"CAM vessel formation / vascularity, effect of applied synthetase",[5],stimulated vessel formation
B2,aminoacylation activity,tRNAThr,essentially no aminoacylation activity; also recorded: virtually negligible aminoacylation function
same,"CAM vessel formation / vascularity, effect of applied synthetase",[5],virtually indistinguishable from wild type
same,Ap4A production rate,TARS [2],no appreciable activity; also recorded: blocked
same,Ap4G formation rate,TARS [3],not catalyzed; also recorded: blocked
B3,GTP hydrolysis rate,TARS [1]; 2 mM GTP,not
same,Ap4A production rate,TARS [2],0.5612 Ap4A/active site/min
same,Ap4G formation rate,TARS [3],0.5612 Ap4G/active site/min
